# Laboratory results from patent US20250084078A1, “FUSED RING-SUBSTITUTED SIX-MEMBERED HETEROCYCLIC COMPOUND, AND PREPARATION METHOD THEREFOR AND USE THEREOF” (GENFLEFT THERAPEUTICS (SHANGHAI) INC., priority 2022, published 2025).
# Biological target: HPK1 (Homo sapiens, UniProt Q92918)
# Experiment: SLP76 phosphorylation assay (intracellular HPK1 inhibitory activity, p-SLP76 S376 ELISA in Jurkat cells)
# Conditions: p-SLP76 IC50, Jurkat, Clone E6-1 cells; 1 h compound pre-incubation; anti-CD3 beads stimulation 20 min; Phospho-SLP-76 (Ser376) ELISA
# Experimental: SLP76 Phosphorylation Assay
# Intracellular HPK1 inhibitory activity was tested by the detection of SLP76 phosphorylation at S376.
# Preparation of 1000× drug stock plate: a 1000× compound stock plate was prepared. […] The compound stock plate was sealed with a sealing film and stored in a −20° C. refrigerator for later use.
# Preparation of Beads wash buffer: 0.1 mL FBS and 0.4 mL 0.5 M EDTA (with a final concentration of 2 mM) were added to 100 mL PBS and stored in a 4° C. refrigerator for later use.
# 100× Protease Inhibitor Cocktail in 1/20 total volume was added and stored on wet ice for later use. The buffer was ready to use.
# Cell inoculation and dosing: the 1000× drug stock plate was taken and melted at room temperature in the dark. […] Jurkat cells in the logarithmic growth phase were selected and collected. […] The cells were inoculated into a 96-well plate (the volume was 90 μL per well), and a blank control well (without cells inoculation, and in which 110 μL of medium was added) was set. 10 μL of a drug-containing culture medium (10×) was transferred from the 10× drug intermediate plate into the 96-well cell plate (with a final concentration of 0.1% DMSO), and set a DMSO control group (in which 0.1% DMSO was added to the treated cells), a stimulated control group (in which 10 μL of culture medium was added to treat cells) and an unstimulated group (in which 10 μL of culture medium was added to treat cells). The wells were duplicated, gently patted, mixed, and then placed into a 5% CO2 incubator at 37° C. for 1 h.
# Anti-CD3 beads stimulation: Dynabeads anti-human CD3 was taken, shaken, and mixed for 60 s. The required volume of beads was pipetted, and an equal volume or at least 1 mL of washing solution was added to wash once. Fresh complete medium was then added to resuspend and adjust the density of the beads to 4×10^7/mL, and the beads were placed on ice for later use. At the end of drug pre-incubation, the cell culture plate was taken out. 10 μL Dynabeads anti-human CD3 was added to each well to treat the cells, and 10 μL the culture medium was added to the unstimulated group. The cell culture plate was shaken to mix well at 2500 rpm for 10 s, and then placed into a 5% CO2 incubator at 37° C. and continued to culture for 20 min.
# Detection of p-SLP76 protein level: PathScan Phospho-SLP-76 (Ser376) Sandwich ELISA Kit was applied to detect p-SLP76 protein level. At the end of the Anti-CD3 beads stimulation, the cell culture plate was removed from the incubator. […] After lysis, the cell culture plate was centrifuged at 4° C., 400×g for 5 min. 25 μL of sample and 75 μL of sample diluent were added to each well, and the plate was placed in a 5% CO2 incubator at 37° C. for 2 h. The subsequent detection steps were carried out following the kit instructions, and the absorbance (OD value) of each well was read at 450 nm by a microplate reader.
# HPK1, sequence (Q92918 whole entry): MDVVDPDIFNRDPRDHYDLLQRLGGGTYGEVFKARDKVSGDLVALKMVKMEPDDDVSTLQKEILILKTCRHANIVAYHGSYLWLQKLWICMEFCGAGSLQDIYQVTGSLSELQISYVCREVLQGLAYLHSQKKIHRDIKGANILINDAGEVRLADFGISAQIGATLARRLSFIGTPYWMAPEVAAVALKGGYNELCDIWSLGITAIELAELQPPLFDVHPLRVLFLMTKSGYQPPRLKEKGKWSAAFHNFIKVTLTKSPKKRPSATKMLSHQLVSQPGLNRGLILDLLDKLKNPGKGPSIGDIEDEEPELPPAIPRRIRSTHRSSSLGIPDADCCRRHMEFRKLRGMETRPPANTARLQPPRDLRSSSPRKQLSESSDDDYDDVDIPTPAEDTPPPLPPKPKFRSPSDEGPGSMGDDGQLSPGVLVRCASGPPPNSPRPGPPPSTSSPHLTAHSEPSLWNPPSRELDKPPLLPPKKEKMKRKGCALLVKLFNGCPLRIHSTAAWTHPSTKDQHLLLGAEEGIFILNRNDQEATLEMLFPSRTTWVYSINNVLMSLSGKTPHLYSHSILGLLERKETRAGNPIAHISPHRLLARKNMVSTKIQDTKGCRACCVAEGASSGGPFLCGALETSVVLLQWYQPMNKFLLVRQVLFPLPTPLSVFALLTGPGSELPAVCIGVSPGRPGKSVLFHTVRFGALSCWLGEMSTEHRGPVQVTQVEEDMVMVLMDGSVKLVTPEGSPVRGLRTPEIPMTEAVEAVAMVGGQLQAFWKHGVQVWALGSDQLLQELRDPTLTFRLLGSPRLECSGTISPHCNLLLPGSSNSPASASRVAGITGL
row,Structure (SMILES),IC50
1,"O=C(N1CCc2cc(-c3cnc4[nH]cc(Cl)c4n3)cc([C@@H]3COCCN3)c2C1)N1C[C@H]2CC[C@@H]1CO2 (single isomer, unassigned) [Compound Z591]",275 nM
2,"Cc1c[nH]c2ncc(-c3cc4c(c([C@@H]5COCCN5)c3)CN(C(=O)N3C[C@H]5CC[C@@H]3CO5)CC4)cc12 (single isomer, unassigned) [Compound Z643]",294 nM
3,"Cc1c[nH]c2ncc(-c3cc4c(c([C@@H]5COCCN5)c3)CN(C3CCOCC3)CC4)cc12 [Compound Z454, (R)-3-(6-(3-methyl-1H-pyrrolo[2,3-b]pyridin-5-yl)-2-(tetrahydro-2H-pyran-4-yl)-1,2,3,4-tetrahydroisoquinolin-8-yl)morpholine]",655 nM
4,"Cc1n[nH]c2ncc(-c3cc4c(c([C@@H]5COCCN5)c3)CN(C(=O)C(C)(C)O)CC4)cc12 [Compound Z455, (R)-2-hydroxy-2-methyl-1-(6-(3-methyl-1H-pyrazolo [3,4-b]pyridin-5-yl)-8-(morpholin-3-yl)-3,4-dihydroisoquinolin-2(1H)-yl)propan-1-one]",4430 nM
5,"Cc1c[nH]c2ncc(-c3cc4c(c([C@@H]5COCCN5)c3)CN(C(=O)N3CC(C)OC(C)C3)CC4)cc12 (stereo partly drawn) [Compound Z459, (2,6-dimethylmorpholine)(6-(3-methyl-1H-pyrrolo[2,3-b]pyridin-5-yl)-8-((R)-morpholin-3-yl)-3,4-dihydroisoquinolin-2(1H)-yl)methanone]",171 nM
6,"Cc1c[nH]c2ncc(-c3cc4c(c([C@@H]5COCCN5)c3)CN(C(=O)N3C(C)COCC3C)CC4)cc12 (stereo partly drawn) [Compound Z460, (3,5-dimethylmorpholine)(6-(methyl-methyl-1H-pyrrolo[2,3-b]pyridin-5-yl)-8-((R)-morpholin-3-yl)-3,4-dihydroisoquinolin-2(1H)-yl)methanone]",177 nM
7,"COC1CN(C(=O)N2CCc3cc(-c4cnc5[nH]cc(C)c5c4)cc([C@@H]4COCCN4)c3C2)C(C)(C)C1 (stereo partly drawn) [Compound Z461, (4-methoxy-2,2-dimethylpyrrolidin-1-yl)(6-(3-methyl-1H-pyrrolo[2,3-b]pyridin-5-yl)-8-((R)-morpholin-3-yl)-3,4-dihydroisoquinolin-2(1H)-yl)methanone]",195 nM
8,Cc1c[nH]c2ncc(-c3cc4c(c([C@@H]5COCCN5)c3)CN(C(=O)N3CC5CCC(C3)N5C)CC4)cc12 [Compound Z462],255 nM
9,"CCc1c(F)[nH]c2ncc(-c3cc4c(c([C@@H]5COCCN5)c3)CN(C(=O)C(C)(C)O)CC4)cc12 [Compound Z464, (R)-3-(6-(3-ethyl-2-fluoro-1H-pyrrolo[2,3-b]pyridin-5-yl)-2-(2-hydroxy-2-methylpropanoyl)-1,2,3,4-tetrahydroisoquinolin-8-yl)morpholine]",193 nM
10,"CC(C)(O)C(=O)N1CCc2cc(-c3cnc4[nH]cc(Cl)c4n3)cc([C@@H]3COCCN3)c2C1 [Compound Z465, (R)-3-(6-(7-chloro-5H-pyrrolo[2,3-b]pyrazin-2-yl)-2-(2-hydroxy-2-methylpropanoyl)-1,2,3,4-tetrahydroisoquinolin-8-yl)morpholine]",144 nM
11,"Cc1c[nH]c2ncc(-c3cc4c(c([C@@H]5COCCN5)c3)CN(S(=O)(=O)C3CC3)CC4)cc12 [Compound Z467, (R)-3-[2-cyclopropylsulfonyl-6-(3-methyl-1H-pyrrolo[2,3-b]pyridin-5-yl)-1,2,3,4-tetrahydroisoquinolin-8-yl]morpholine]",385 nM
12,"Cc1ncc(C(=O)N2CCc3cc(-c4cnc5[nH]cc(C)c5c4)cc([C@@H]4COCCN4)c3C2)cn1 [Compound Z468, (R)-(2-methylpyrimidin-5-yl)-[6-(3-methyl-1H-pyrrolo[2,3-b]pyridin-5-yl)-8-[morpholin-3-yl]-3,4-dihydroisoquinolin-2(1H)-yl]methanone]",340 nM
13,"Cc1c[nH]c2ncc(-c3cc4c(c([C@@H]5COCCN5)c3)CN(C(=O)N3C5CCC3CN(C)C5)CC4)cc12 [Compound Z471, (6-(3-methyl-1H-pyrrolo[2,3-b]pyridin-5-yl)-8-((R)-morpholin-3-yl)-3,4-dihydroisoquinolin-2(1H)-yl)(3-methyl-3,8-diazabicyclo[3.2.1]octan-8-yl)methanone]",180 nM
14,O=C(N1CCc2cc(-c3cnc4[nH]cc(F)c4c3)cc([C@@H]3COCCN3)c2C1)N1CC2CCC(C1)O2 [Compound Z475],117 nM
15,Cc1c[nH]c2ncc(-c3cc4c(c([C@@H]5COCCN5)c3)CN(C(=O)c3cnn(C(C)C)c3)CC4)cc12 [Compound Z477],422 nM
16,"Cc1c(Cl)[nH]c2ncc(-c3cc4c(c([C@@H]5COCCN5)c3)CN(C(=O)C(C)(C)O)CC4)cc12 [Compound Z481, (R)-1-(6-(2-chloro-3-methyl-1H-pyrrolo[2,3-b]pyridin-5-yl)-8-(morpholin-3-yl)-3,4-tetrahydroisoquinolin-2(1H)-yl)-2-hydroxy-2-methylpropan-1-one]",443 nM

# Results, then the compound that gave them:
row,IC50,Structure (SMILES)
1,82.6 nM,"Cc1c[nH]c2ncc(-c3cc4c(c(C5COCCN5)c3)CN(C(=O)[C@](C)(O)C(F)(F)F)CC4)cc12 (single isomer, unassigned) [Compound Z309-1]"
2,159 nM,"COC1(C(=O)N2CCc3cc(-c4cnc5[nH]cc(C)c5c4)cc([C@@H]4COCCN4)c3C2)CC1 [Compound Z373, (R)-(1-methoxycyclopropyl)(6-(3-methyl-1H-pyrrolo[2,3-b]pyridin-5-yl)-8-(morpholin-3-yl)-3,4-dihydroisoquinolin-2(1H)-yl)methanone]"
3,258 nM,"O=C(N1CCc2cc(-c3cnc4[nH]cc(Cl)c4c3)cc([C@@H]3COCCN3)c2C1)C1(O)CC1 [Compound Z435, (R)-(6-(3-chloro-1H-pyrrolo[2,3-b]pyridin-5-yl)-8-(morpholin-3-yl)-3,4-dihydroisoquinolin-2(1H)-yl)(1-hydroxycyclopropyl)methanone]"
4,238 nM,"Cc1c[nH]c2ncc(-c3cc4c(c([C@@H]5COCCN5)c3)CN(C(=O)N3CCO[C@@H](C)C3)CC4)cc12 [Compound Z452, (6-(3-methyl-1H-pyrrolo[2,3-b]pyridin-5-yl)-8-((R)-morpholin-3-yl)-3,4-dihydroisoquinolin-2(1H)-yl)((S)-2-methylmorpholine)methanone]"
5,148 nM,"Cc1c[nH]c2ncc(-c3cc4c(c([C@@H]5COCCN5)c3)CN(C(=O)N3CCOC(C)(C)C3)CC4)cc12 [Compound Z453, (R)-(2,2-dimethylmorpholine)(6-(3-methyl-1H-pyrrolo[2,3-b]pyridin-5-yl)-8-(morpholin-3-yl)-3,4-dihydroisoquinolin-2(1H)-yl)methanone]"
6,315 nM,Cc1c[nH]c2ncc(-c3cc4c(c([C@@H]5COCCN5)c3)CN(C(=O)c3cnn(C5CC5)c3)CC4)cc12 [Compound Z456]
7,127 nM,"Cc1c[nH]c2ncc(-c3cc4c(c([C@@H]5COCCN5)c3)CN(C(=O)N3CC(C)OCC3C)CC4)cc12 (stereo partly drawn) [Compound Z458, (2,5-dimethylmorpholine)(6-(3-methyl-1H-pyrrolo[2,3-b]pyridin-5-yl)-8-((R)-morpholin-3-yl)-3,4-dihydroisoquinolin-2(1H)-yl)methanone]"
8,293 nM,Cc1c[nH]c2ncc(-c3cc4c(c([C@@H]5COCCN5)c3)CN(C(=O)N3C[C@@H]5C[C@H]3CO5)CC4)cc12 [Compound Z463]
9,306 nM,"COCC(=O)N1CCc2cc(-c3cnc4[nH]cc(Cl)c4c3)cc([C@@H]3COCCN3)c2C1 [Compound Z466, (R)-1-[6-(3-chloro-1H-pyrrolo[2,3-b]pyridin-5-yl)-8-morpholin-3-yl-3,4-dihydroisoquinolin-2(1H)-yl]-2-methoxyethan-1-one]"
10,127 nM,CN1C2CCC1CN(C(=O)N1CCc3cc(-c4cnc5[nH]cc(Cl)c5c4)cc([C@@H]4COCCN4)c3C1)C2 [Compound Z470]
11,216 nM,CN1CC2CCC(C1)N2C(=O)N1CCc2cc(-c3cnc4[nH]cc(Cl)c4c3)cc([C@@H]3COCCN3)c2C1 [Compound Z472]
12,329 nM,CO[C@@H]1CCN(C(=O)N2CCc3cc(-c4cnc5[nH]cc(C)c5c4)cc([C@@H]4COCCN4)c3C2)C1 [Compound Z478]
13,147 nM,"Cc1c[nH]c2ncc(-c3cc4c(c([C@@H]5COCCN5)c3)CN(C(=O)N3CCOCC3(C)C)CC4)cc12 [Compound Z479, (R)-(3,3-dimethylmorpholine)(6-(3-methyl-1H-pyrrolo[2,3-b]pyridin-5-yl)-8-(morpholin-3-yl)-3,4-dihydroisoquinolin-2(1H)-yl)methanone]"
14,118 nM,"Cc1c[nH]c2ncc(-c3cc4c(c([C@@H]5COCCN5)c3)CN(C(=O)N3CCOC[C@H]3C)CC4)cc12 [Compound Z480, (6-(3-methyl-1H-pyrrolo[2,3-b]pyridin-5-yl)-8-((R)-morpholin-3-yl)-3,4-dihydroisoquinolin-2(1H)-yl)((R)-3-methylmorpholino)methanone]"
15,311 nM,"Cc1c[nH]c2ncc(-c3cc4c(c([C@@H]5COCCN5)c3)CN(C(=O)N3CCN(C)CC3)CC4)cc12 [Compound Z482, (R)-(6-(3-methyl-1H-pyrrolo[2,3-b]pyridin-5-yl)-8-(morpholin-3-yl)-3,4-dihydroisoquinolin-2(1H)-yl)(4-methylpiperazin-1-yl)methanone]"
16,112 nM,"O=C(N1CCOCC1)N1CCc2cc(-c3cnc4[nH]cc(Cl)c4c3)cc([C@@H]3COCCN3)c2C1 [Compound Z483, (R)-(6-(3-chloro-1H-pyrrolo[2,3-b]pyridin-5-yl)-8-(morpholin-3-yl)-3,4-dihydroisoquinolin-2(1H)-yl)(morpholine)methanone]"
17,364 nM,"Cc1c[nH]c2ncc(-c3cc4c(c([C@@H]5COCCN5)c3)CN(C(=O)N3CCO[C@H](C)C3)CC4)cc12 [Compound Z484, (6-(3-methyl-1H-pyrrolo[2,3-b]pyridin-5-yl)-8-((R)-morpholin-3-yl)-3,4-dihydroisoquinolin-2(1H)-yl)((R)-2-methylmorpholino)methanone]"
18,126 nM,"O=C(N1CCc2cc(-c3cnc4[nH]cc(Cl)c4c3)cc([C@@H]3COCCN3)c2C1)C1(O)CCOCC1 [Compound Z485, (R)-(6-(3-chloro-1H-pyrrolo[2,3-b]pyridin-5-yl)-8-(morpholin-3-yl)-3,4-dihydroisoquinolin-2(1H)-yl)(4-hydroxytetrahydro-2H-pyran-4-yl)methanone]"
